From patent publication US7173007B1, “Therapy for microbial infections” (The Regents of the University of California, priority 2003, dated 2007)

Tests used:
[1] = system: Staphylococcus epidermidis (ATCC 12228); assay: Radial diffusion (inhibition zone) assay; assay type: cell-based; details: S. epidermidis (Gram-positive)
Description: (§1) Antimicrobial assays. E. coli (ATCC 25922), Pseudomonas aeruginosa (ATCC 8427), Salmonella typhimurium (ATCC 13311), Proteus vulgaris (ATCC 8427), Staphylococcus epidermidis (ATCC 12228), and MRSA (ATCC 33591) isolates were maintained on trypticase soy broth (TSB) agar plates. Individual colonies were selected and cultured overnight in TSB, subcultured once at 1:50 in fresh TSB, and then grown to stationary phase for use in all experiments. The radial diffusion assay was performed in 0.5% agarose and 0.75% tryptone brought to ebullition and cooled to 43° C., and then mixed with […] of bacterial suspension and poured into a 10 cm Petri dish. A series of small wells (diameter, 3 mm) were punched in the plate after the agarose solidified. Two microliters of test samples were applied in each well. Plates were incubated at 37° C. overnight to allow visible growth of bacteria. Antibacterial activity was indicated by the clear zone (no bacterial growth) around the well.
(§2) Antimicrobial activity of recombinant cathelin-like protein. Recombinant cathelicidins were tested for antimicrobial activity using a standard radial diffusion assay. Different concentrations of the cathelin-like protein were loaded into wells on assay plates containing Gram-positive MRSA, S. epidermidis, and strains of the Gram-negative bacterial species E. coli, S. enteritidis, P. vulgaris, and P. aeruginosa. […] Similarly, cathelin-like protein inhibited growth of S. epidermidis ([…]) but not S. enteritidis or P. vulgaris.

[2] = system: Pseudomonas aeruginosa (ATCC 8427); assay: Radial diffusion (inhibition zone) assay; assay type: cell-based; details: P. aeruginosa
Description: as §1, §2

E. coli (ATCC 25922) = assay: Radial diffusion (inhibition zone) assay; assay type: cell-based
Description: as §1, §2

S. enteritidis = assay: Radial diffusion (inhibition zone) assay; assay type: cell-based
Description: as §1, §2

MRSA (ATCC 33591) = assay: Radial diffusion (inhibition zone) assay; assay type: cell-based, Staphylococcus aureus; details: MRSA (Gram-positive)
Description: (§3) FIGS. 3A–C show Growth inhibition of MRSA, E. coli, and P. aeruginosa by cathelin-like protein. (a) Inhibition zone ssay on tryptone/agarose plates with MRSA. Clear circles show lack of bacterial growth. Lanes 1, 3, 5, bottom row: cathelin-like protein at […], 16 μM, respectively. Lane 2, top row:[…] of His-tagged cathelin-like protein before cleavage. Lane 4, top: enterokinase enzyme alone. All assays were performed in duplicate and repeated three times. (b), (c) CFU assay: growth inhibition of (b) MRSA and (c) E. coli, cultured in 10 mM phosphate and 1% TSB (pH 7.4) and then supplemented with different concentrations of human cathelin-like protein.
as §1, with “A series of small wells (diameter, 3 mm) were punched in the plate after the agarose solidified. Two microliters of test samples were applied in each well. Plates were incubated at 37° C. overnight to allow visible growth of bacteria. Antibacterial activity was indicated by the clear zone (no bacterial growth) around the well.” left out

E. coli = assay: Colony-forming assay (CFU), liquid phase; assay type: cell-based; parameters: unit of the concentration uncertain; details: 3 (unit uncertain), 10 mM phosphate, 1% TSB, pH 7.4
Description: as §3
(§4) The colony-forming assay (CFU) was performed. Bacterial cultures (E. coli or MRSA) were collected at the logarithmic phase of growth in TSB, washed twice with phosphate-buffered saline, pH 7.4, and diluted to 104 CFU per ml in 10 mM phosphate buffer, pH 7.4, Na2HPO4/NaH2PO4-1% TSB (g per 1). Forty-five microliters of bacterial suspension were mixed with […] of H2O (control) or with […] of different concentrations of cathelin-like proteins, and the mixture was incubated at 37° C. Every 30 min, a […] aliquot of the reaction mixture was plated directly onto a TSB agar plate and then incubated at 37° C. overnight for enumeration of CFU. Data are reported as growth index=final CFU/CFU in initial inoculum. […]

MRSA = assay: Colony-forming assay (CFU), liquid phase; assay type: cell-based, Staphylococcus aureus; details: 10 mM phosphate, 1% TSB, pH 7.4
Description: as §3, §4

| Substance | growth inhibition [1] | growth inhibition [2] | growth inhibition (E. coli (ATCC 25922)) | growth inhibition (S. enteritidis) | growth inhibition (MRSA (ATCC 33591)) | effect on growth (CFU) (E. coli) | effect on growth (CFU) (MRSA) |
| --- | --- | --- | --- | --- | --- | --- | --- |
| CRAMP [reference compound] | inactive | highly active | highly active | highly active | inactive | – | – |
| LL-37: C-terminal 37 amino acid mature antimicrobial peptide of human hCAP18 (LLGDFFRKSKEKIGKEFKRIVQRIKDFLRNLVPRTES) [reference compound] | inactive | highly active | highly active | highly active | inactive | bactericidal | no effect |
